Converted amounts (≈) assume the structure as drawn. The source made the active and inactive calls. The rule behind the calls is not given here.
Experiments:
Campylobacter jejuni [1] = assay: Antimicrobial activity against Campylobacter jejuni DC6 infected in 3 days old chicken by agar dilution method; format: functional
Campylobacter jejuni [2] = assay: Antimicrobial activity against Campylobacter jejuni DC2 infected in 3 days old chicken by agar dilution method; format: functional
Campylobacter jejuni [3] = assay: Antimicrobial activity against Campylobacter jejuni DC26 infected in chicken assessed as microbial shedding level after compound administration through feed for 20 days; format: functional, organism-based
Campylobacter jejuni [4] = assay: Antimicrobial activity against Campylobacter jejuni DC26 infected in 15 days old chicken food on medicated food by agar dilution method; format: functional
Campylobacter jejuni [5] = assay: Antimicrobial activity against Campylobacter jejuni DC2 infected in 15 days old chicken food on medicated food by agar dilution method; format: functional
Campylobacter jejuni [6] = assay: Antimicrobial activity against Campylobacter jejuni DC2 infected in 15 days old chicken by agar dilution method; format: functional
Campylobacter jejuni [7] = assay: Antimicrobial activity against Campylobacter jejuni DC2 infected in chicken assessed as microbial shedding level after compound administration through feed for 20 days; format: functional, organism-based

CC[C@H]1OC(=O)C[C@@H](O)[C@H](C)[C@@H](O[C@@H]2O[C@H](C)[C@@H](O[C@H]3C[C@@](C)(O)[C@@H](O)[C@H](C)O3)[C@H](N(C)C)[C@H]2O)[C@@H](CC=O)C[C@@H](C)C(=O)/C=C/C(C)=C/[C@@H]1CO[C@@H]1O[C@H](C)[C@@H](O)[C@@H](OC)[C@H]1OC [TYLOSIN]
MIC (Campylobacter jejuni [1]): > 512 µg/mL
MIC (Campylobacter jejuni [2]): 64 µg/mL (≈ 69.9 µM)
Activity (Campylobacter jejuni [3]): inactive
MIC (Campylobacter jejuni [4]): 128 µg/mL (≈ 140 µM)
MIC (Campylobacter jejuni [5]): 64 µg/mL (≈ 69.9 µM)
MIC (Campylobacter jejuni [6]): 64 µg/mL (≈ 69.9 µM)
Activity (Campylobacter jejuni [7]): inactive

From ChEMBL document CHEMBL1671637, “Development, stability, and molecular mechanisms of macrolide resistance in Campylobacter jejuni” (2008)
